Experimental data: ChEMBL document CHEMBL1126985, “Brush-border-enzyme-mediated intestine-specific drug delivery. Amino acid prodrugs of 5-aminosalicylic acid” (J Med Chem, 1993)

Experiments:
[1] = Half-life was determined by hydrolysis of compound in a solution of peptidases; type: ADME
Rattus norvegicus [2] = species on record: Rattus norvegicus; assay: Fecal recovery in colostomized rats at 2 hr intervals for 48 h; type: functional
Rattus norvegicus [3] = species on record: Rattus norvegicus; assay: Fecal recovery in non-colostomized rats at 2 hr intervals for 48 h; type: functional
Rattus norvegicus [4] = species on record: Rattus norvegicus; assay: Urinary recovery in colostomized rats at 2 hr intervals for 48 h; type: functional, Urine
Rattus norvegicus [5] = species on record: Rattus norvegicus; assay: Urinary recovery in non-colostomized rats at 2 hr intervals for 48 h; type: functional, Urine

| SMILES | half-life [1] | Fecal recovery (Rattus norvegicus [2]) | Fecal recovery (Rattus norvegicus [3]) | Urinary recovery (Rattus norvegicus [4]) | Urinary recovery (Rattus norvegicus [5]) |
| --- | --- | --- | --- | --- | --- |
| N[C@@H](CCC(=O)[O-])C(=O)Nc1ccc(O)c(C(=O)[O-])c1.[Na+].[Na+] | 1.35 h | 44.2% | 44.29% | 31.83% | 32.42% |
| N[C@@H](CC(=O)[O-])C(=O)Nc1ccc(O)c(C(=O)[O-])c1.[Na+].[Na+] | – | 35.73% | 34.2% | 32.66% | 30.09% |
| O=C(O)c1cc(/N=N/c2ccc(S(=O)(=O)Nc3ccccn3)cc2)ccc1O [SULFASALAZINE] | – | 37.77% | 38.9% | 33.34% | 32.21% |
| Nc1ccc(O)c(C(=O)O)c1 [MESALAMINE] | – | 5.08% | 4.32% | 69.61% | 78.84% |
